Laboratory results taken from paper PMC6270209, “Synthesis, Antimycobacterial Activity and In Vitro Cytotoxicity of 5-Chloro-N-phenylpyrazine-2-carboxamides” (Molecules, 2013).
In brackets after ≈: the same amount, converted by molar mass. Like-named read-outs stand apart in the source and are kept apart here.

How the values were obtained:
HepG2 cells [1] = assay: cells; conditions: Homo sapiens, HepG2, read-out: HepG2 IC50
M. avium CNCTC My 152/73 = assay: In vitro antimycobacterial activity, microdilution panel method (MIC); assay type: cell-based, Mycobacterium avium; conditions: for MIC: Mycobacterium avium
[2] = tested on: renal cell adenocarcinoma (ACHN) cell line; assay: cells; conditions: Homo sapiens, 24 h, read-out: ACHN IC50
[3] = tested on: M. kansasii Hauduroy CNCTC My 235/80; assay: In vitro antimycobacterial activity, microdilution panel method (MIC); assay type: cell-based, Mycobacterium kansasii; conditions: for MIC: Mycobacterium kansasii
[4] = tested on: M. avium ssp. avium Chester CNCTC My 80/72; assay: as above; assay type: cell-based, Mycobacterium avium; conditions: for MIC: Mycobacterium avium
[5] = tested on: M. tuberculosis H37Rv CNCTC My 331/88; assay: as above; assay type: cell-based, Mycobacterium tuberculosis
[6] = tested on: Chinese hamster ovary (CHO-K1) cell line; assay: cells; conditions: Cricetulus griseus, CHO-K1, 24 h, read-out: CHO-K1 IC50
in vitro = conditions: human
HepG2 cells [7] = tested on: HepG2 cells
[8] = tested on: renal cell adenocarcinoma (ACHN) cell line
[9] = tested on: Chinese hamster ovary (CHO-K1) cell line
HepG2 cells [10] = conditions: comparable HepG2 cytotoxicity assay; cited from earlier work
[11] = RP-HPLC, C18, MeOH 70% / H2O 30%, 30 °C
[12] = M. kansasii Hauduroy CNCTC My 235/80
[13] = Mycobacterium tuberculosis, H37RV, M. tuberculosis H37Rv, retest with extended dilution scale up to 0.39 µg/mL, read-out: Antimycobacterial activity MIC, M. tbc (confirmation retest, value in parentheses)
[14] = Mycobacterium tuberculosis, H37RV, MIC converted to molar concentrations, read-out: M. tbc H37Rv MIC
[15] = Mycobacterium tuberculosis, H37RV, pH 5.6, M. tuberculosis H37Rv, primary test, dilution scale 100–[…], Šula's medium pH 5.6, read-out: Antimycobacterial activity MIC, M. tbc
[16] = SI calculated for M. tbc as IC50 (HepG2)/MIC (in μM) using the lower MIC values (Table 1)
[17] = Mycobacterium tuberculosis, H37RV, read-out: M. tbc H37Rv MIC (µM), MIC converted to molar concentrations

**Q.** For `O=C(Nc1ccc(O)cc1)c1cnc(Cl)cn1` [Compound 4, 5-Chloro-N-(4-hydroxyphenyl)pyrazine-2-carboxamide], which IC50 (HepG2 cells [1]) is on record?
**A.** 69 µM

**Q.** And the MIC (M. avium CNCTC My 152/73)?
**A.** 50 µg/mL (≈ 200 µM)

**Q.** What about the IC50 [2] of the same compound?
**A.** 100 ± 39 µM

**Q.** What about the “Activity against M. kansasii (in words)” value [3] of the same compound?
**A.** inactive

**Q.** And the MIC [3, 12]?
**A.** 100 µg/mL (≈ 401 µM)

**Q.** What about the MIC [4] of the same compound?
**A.** > 100 µg/mL

**Q.** And the MIC [5, 13]?
**A.** 12.5 µg/mL

**Q.** What about the MIC [5, 14] of the same compound?
**A.** 12.5 µM

**Q.** What about the MIC [5, 15] of the same compound?
**A.** 3.13 µg/mL

**Q.** What about the IC50 [6] of the same compound?
**A.** 48 ± 4 µM

**Q.** And the IC50 (in vitro)?
**A.** 68.6 µM

**Q.** And the “Cytotoxicity SI” value (HepG2 cells [7]; [16])?
**A.** 5.47

**Q.** For `NC(=O)c1cnc(Cl)cn1` [Compound 5-Cl-PZA, 5-chloropyrazine-2-carboxamide, reference compound], which IC50 (HepG2 cells [1]) is on record?
**A.** 1590 µM

**Q.** What about the MIC (M. avium CNCTC My 152/73) of the same compound?
**A.** > 100 µg/mL

**Q.** And the IC50 [2]?
**A.** 540 ± 120 µM

**Q.** And the MIC [3, 12]?
**A.** 12.5 µg/mL (≈ 79.3 µM)

**Q.** And the MIC [4]?
**A.** > 100 µg/mL

**Q.** What about the MIC [5, 15] of the same compound?
**A.** 25 µg/mL

**Q.** What about the MIC [5, 17] of the same compound?
**A.** 159 µM

**Q.** What about the IC50 [6] of the same compound?
**A.** 290 ± 43 µM

**Q.** What about the IC50 (in vitro) of the same compound?
**A.** 1590 µM

**Q.** What about the “Cytotoxicity SI” value (HepG2 cells [7]; human) of the same compound?
**A.** 10.0

**Q.** What does the source list for `O=C(Nc1cc(Cl)ccc1O)c1cnc(Cl)cn1` [Compound 21, 5-Chloro-N-(5-chloro-2-hydroxyphenyl)pyrazine-2-carboxamide]?
**A.** IC50 (HepG2 cells [1]): 41 µM; Antimycobacterial activity MIC, M. avium (M. avium CNCTC My 152/73): 12.5 µg/mL; MIC (M. avium CNCTC My 152/73): 12.5 µg/mL (≈ 44 µM); IC50 [2]: 51 ± 14 µM; Antimycobacterial activity MIC, M. kansasii [3, 12]: 12.5 µg/mL; MIC [3, 12]: 12.5 µg/mL (≈ 44 µM); Antimycobacterial activity MIC, M. avium [4]: 12.5 µg/mL; MIC [4]: 12.5 µg/mL (≈ 44 µM); MIC [5, 13]: 6.25 µg/mL; MIC [5, 14]: 5.5 µM; MIC [5, 15]: 1.56 µg/mL; IC50 [6]: 39 ± 2 µM; IC50 (in vitro): 40.6 µM; Cytotoxicity SI (HepG2 cells [7]; [16]): 7.39

**Q.** Which “Cytotoxicity rating in ACHN cell line (in words)” value [8] does the source give for `O=C(Nc1ccc(C(=O)O)c(O)c1)c1cnc(Cl)cn1` [Compound 30, 4-(5-Chloropyrazine-2-carboxamido)-2-hydroxybenzoic acid] here?
**A.** non-toxic

**Q.** And the MIC (M. avium CNCTC My 152/73)?
**A.** > 100 µg/mL

**Q.** And the melting point?
**A.** 240 to 244 °C (dec.)

**Q.** What about the IC50 [2] of the same compound?
**A.** 371 ± 96 µM

**Q.** What about the MIC [4] of the same compound?
**A.** > 100 µg/mL

**Q.** What about the “Cytotoxicity rating in CHO-K1 cell line (in words)” value [9] of the same compound?
**A.** non-toxic

**Q.** And the MIC ([5]; MIC converted to molar concentrations, read-out: M. tbc H37Rv MIC)?
**A.** 10.7 µM

**Q.** What about the “Activity in comparison with PZA (times more active)” value ([5]; MIC for M. tbc H37Rv in µM compared) of the same compound?
**A.** 5–10 times

**Q.** What about the MIC [5, 15] of the same compound?
**A.** 3.13 µg/mL

**Q.** What about the MIC [5, 17] of the same compound?
**A.** 10 µM

**Q.** And the IC50 [6]?
**A.** 502 ± 122 µM

**Q.** With `NNC(=O)c1ccncc1` [INH, isoniazid, reference compound] as the compound, how does the MIC (M. avium CNCTC My 152/73) read?
**A.** 3.13 to 6.25 µg/mL (≈ 22.8 to 45.6 µM)

**Q.** What about the IC50 (HepG2 cells [10]) of the same compound?
**A.** 79000 µM

**Q.** And the MIC [3, 12]?
**A.** 12.5 to 25 µg/mL (≈ 91.1 to 182 µM)

**Q.** What about the MIC [4] of the same compound?
**A.** 12.5 to 25 µg/mL (≈ 91.1 to 182 µM)

**Q.** And the Lipophilicity logk [11]?
**A.** −0.743

**Q.** And the MIC [5, 15]?
**A.** 0.39 to 0.78 µg/mL
